Measured values as given in patent US20210338645A1, “SOLID DISPERSION OF RIFAMYCIN-NITROIMIDAZOLE COUPLING MOLECULE AND APPLICATION THEREOF” (TenNor Therapeutics Limited, priority 2018, published 2021).
Where two headings read alike, the source gives them in different places.

How the values were obtained:
Type in all cases: physicochemical
[1] = Dissolution of spray-dried solid dispersion powder in acetate buffer of pH 4.5 (target 4 mg/mL); conditions: acetate buffer pH 4.5, 37° C.
Experimental: About 344 mg of prepared solid dispersions are taken and poured into a 40 mL glass bottle; 20 mL of acetate buffer of pH 4.5 (preheated to 37° C.) is used as the dissolution medium (the target concentration of the rifaomycin-nitroimidazole coupling molecule is 4 mg/mL); the glass bottle is sealed; and the above materials are whirled for 5 seconds and placed on a heated magnetic stirrer at 37° C. after a stir bar is inserted. The rotational speed is 300 rpm. After 10 min, 20 min, 40 min, 60 min, 90 min, 120 min and 180 min, 500 μL of the liquid is taken into the centrifuge tube and centrifuged at 14000 rpm for 3 min. The supernatant liquid is taken into the liquid phase bottle and diluted to 10 times with acetonitrile as the solution to be tested, the high performance liquid chromatography is injected and the chromatogram is recorded, and the concentration is calculated by the peak area using the external standard method.

[2] = Approximate solubility of the coupling molecule in spray drying solvents; conditions: organic solvent or mixture, thermodynamic from solid
Experimental: In this embodiment, the solvent is firstly screened and determined: the solvent comprises one or a combination of more of methanol, ethanol, acetone, ethyl acetate, tetrahydrofuran and dichloromethane. About 10 mg of rifamycin-nitroimidazole coupling molecules are weighed into a 1.5 mL liquid phase bottle, and appropriate volumes of different solvents are added respectively to observe and judge whether the coupling molecule is completely dissolved and judge approximate solubility of the coupling molecule.

[3] = Two-hour solubility of API in functional excipient solution
[4] = Dissolution of binary solid dispersion film in simulated gastric fluid of pH 1.2; conditions: simulated gastric fluid pH 1.2, 25° C.
Experimental: (§1) Preparation of binary solid dispersion (ASD for short): About 25 mg of rifaomycin-nitroimidazole coupling molecules and about 25 mg of carrier excipient are weighed, and placed into the same 40 mL glass bottle. The open 40 mL glass bottle is covered with perforated aluminum-foil paper to prevent cross contamination and placed into a 35° C. vacuum drying oven for rapid volatilization. After 40 hours of vacuum and full drying, the binary dispersion forms a purple film on the bottom of the bottle to obtain a binary solid dispersion film.
(§2) The prepared binary solid dispersion film is subjected to dissolution experiments: In the 40 mL glass bottle containing solid dispersion films, 0.5 mL of simulated gastric fluid of pH 1.2 and […] of acetate buffer of pH 4.5 are respectively taken as dissolution media (25° C.) (the target concentration is 50 mg ml), to seal the glass bottle and complete the vortex processing for 5 seconds; 100 μL of liquid is taken as an initial sampling point (0 minute) and then the glass bottle is shaken by a rocking bed; 100 μL of solution is taken into centrifugal tubes respectively after 10 minutes, 30 minutes, and 60 minutes, to perform the centrifugation at a rotational speed of 14000 rpm for 5 minutes; and the supernatant is taken into a small liquid phase bottle and is diluted with the acetonitrile to a suitable multiple, and high-performance liquid chromatograph is taken into the glass bottle, to record a chromatogram map and calculate the concentration according to the peak area by an external standard method.

[5] = Dissolution of binary solid dispersion film in acetate buffer of pH 4.5; conditions: for Drug Concentration: acetate buffer pH 4.5, 25° C.
Experimental: as §1, §2

[6] = Two-hour solubility of API in functional excipient solution; conditions: for Two-hour Dissolution Rate: 37° C.; for increase of two-hour dissolution rate compared to API powder control: pH 4.5 system
Experimental: In order to further increase the dissolution performance of the rifamycin-nitroimidazole coupling molecule, sodium dodecyl sulfate, meglumine, VE-TPGS or Tween 80 is respectively added in the simulated gastric fluid system of pH=1.2 or the acetate buffer system of pH=4.5, to prepare the dissolution medium containing 3 mg/mL of functional excipient. About 100 mg (or 20 mg) of rifamycin-nitroimidazole coupling molecules are weighed and put into a 1.5 ml high-performance liquid phase bottle, 1 ml of simulated gastric fluid of pH 1.2 (or acetate buffer of pH 4.5) containing functional excipient is added, and the rifamycin-nitroimidazole coupling molecules are put into a constant temperature mixing instrument at 37° C., the rotation speed is 700 rpm, and after 120 minutes, 500 μl of liquid is taken into a centrifuge tube and centrifuged at 14,000 rpm for 5 min. The supernatant liquid is centrifuged again in the same condition, and the supernatant liquid after twice centrifugation is taken into the liquid phase bottle, and diluted to a proper amount of times with acetonitrile as the solution to be tested, a high performance liquid chromatograph is injected to record a chromatogram, and the concentration is calculated by a peak area using an external standard method.

[7] = simulated gastric fluid pH 1.2, no functional excipient
[8] = acetate buffer pH 4.5, Meglumine
[9] = acetate buffer pH 4.5, no functional excipient
[10] = simulated gastric fluid pH 1.2, SLS
[11] = simulated gastric fluid pH 1.2, Tween80
[12] = simulated gastric fluid pH 1.2, VE-TPGS

Phenomenon [1]: Inhomogeneous | Drug Concentration ([1]; 10 Min): 0.21 mg/mL | Drug Concentration ([1]; 20 Min): 0.17 mg/mL | Drug Concentration ([1]; 40 Min): 0.19 mg/mL | Drug Concentration ([1]; 60 Min): 0.18 mg/mL | Drug Concentration ([1]; 90 Min): 0.18 mg/mL | Drug Concentration ([1]; 120 Min): 0.18 mg/mL | Drug Concentration ([1]; 180 Min): 0.16 mg/mL | pH ([1]; dissolution medium): 4.47 | solubility ([2]; acetone, read-out: Approximate Solubility): > 300 mg/mL | solubility ([2]; dichloromethane, read-out: Approximate Solubility): > 300 mg/mL | solubility ([2]; ethanol, read-out: Approximate Solubility): 167 to 200 mg/mL | solubility ([2]; ethyl acetate, read-out: Approximate Solubility): 167 to 200 mg/mL | solubility ([2]; methanol, read-out: Approximate Solubility): > 300 mg/mL | solubility ([2]; various common spray drying solvents, read-out: Solubility): > 100 mg/mL | solubility ([2]; tetrahydrofuran, read-out: Approximate Solubility): > 200 mg/mL | Two-hour Dissolution Rate ([3]; 100 mg API + 1 mL simulated gastric fluid pH 1.2, no functional excipient, 37° C.): 9.8 mg/mL | Final pH [3, 7]: 2.5 | pH ([4]; dissolution medium): 2.0 | Phenomenon [4]: Clear | Drug Concentration ([4]; 0 min): 10.0 mg/mL | Drug Concentration ([4]; 10 min): 46.4 mg/mL | Drug Concentration ([4]; 30 min): 54.7 mg/mL | Drug Concentration ([4]; 60 min): 53.5 mg/mL | Drug Concentration ([5]; 0 min): 0.01 mg/mL | Drug Concentration ([5]; 10 min): 0.29 mg/mL | Drug Concentration ([5]; 30 min): 0.34 mg/mL | Drug Concentration ([5]; 60 min): 0.37 mg/mL | pH ([5]; dissolution medium, acetate buffer pH 4.5): 4.5 | Two-hour Dissolution Rate ([6]; 20 mg API + 1 mL acetate buffer pH 4.5, Meglumine 3 mg/mL): 0.10 mg/mL | Two-hour Dissolution Rate ([6]; 20 mg API + 1 mL acetate buffer pH 4.5, SLS 3 mg/mL): 0.06 mg/mL | Two-hour Dissolution Rate ([6]; 20 mg API + 1 mL acetate buffer pH 4.5, Tween80 3 mg/mL): 0.61 mg/mL | Two-hour Dissolution Rate ([6]; 20 mg API + 1 mL acetate buffer pH 4.5, VE-TPGS 3 mg/mL): 0.84 mg/mL | Two-hour Dissolution Rate ([6]; 20 mg API + 1 mL acetate buffer pH 4.5, no functional excipient): 0.15 mg/mL | Two-hour Dissolution Rate ([6]; 100 mg API + 1 mL simulated gastric fluid pH 1.2, SLS 3 mg/mL): 6.7 mg/mL | Two-hour Dissolution Rate ([6]; 100 mg API + 1 mL simulated gastric fluid pH 1.2, Tween80 3 mg/mL): 11.7 mg/mL | Two-hour Dissolution Rate ([6]; 100 mg API + 1 mL simulated gastric fluid pH 1.2, VE-TPGS 3 mg/mL): 11.5 mg/mL | Final pH [6, 8]: 4.91 | Physical Appearance [6, 8]: Suspension | Final pH ([6]; acetate buffer pH 4.5, SLS): 4.65 | Physical Appearance ([6]; acetate buffer pH 4.5, SLS): Suspension | Final pH ([6]; acetate buffer pH 4.5, Tween80): 4.46 | Physical Appearance ([6]; acetate buffer pH 4.5, Tween80): Suspension | Final pH ([6]; acetate buffer pH 4.5, VE-TPGS): 4.45 | Physical Appearance ([6]; acetate buffer pH 4.5, VE-TPGS): Suspension | Final pH [6, 9]: 4.45 | Physical Appearance [6, 9]: Suspension | increase of two-hour dissolution rate compared to API powder control ([6]; Tween-80): 4 times | increase of two-hour dissolution rate compared to API powder control ([6]; VE-TPGS): 6 times | Final pH [6, 10]: 2.72 | Physical Appearance [6, 10]: Suspension | Final pH [6, 11]: 2.60 | Physical Appearance [6, 11]: Suspension | Final pH [6, 12]: 2.60 | Physical Appearance [6, 12]: Suspension | Physical Appearance [6, 7]: Suspension
SMILES: CO[C@H]1/C=C/O[C@@]2(C)Oc3c(C)c(O)c4c(c3C2=O)C2=NC3(CCN(CCn5c([N+](=O)[O-])cnc5C)CC3)NC2=C(NC(=O)/C(C)=C\C=C\[C@H](C)[C@H](O)[C@@H](C)[C@@H](O)[C@@H](C)[C@H](OC(C)=O)[C@@H]1C)C4=O [API]
Phenomenon ([5]; acetate buffer pH 4.5): Clear solution, incomplete dissolved film
